From patent US20240336653A1, “PEPTIDE COMPOUND TARGETING ELASTIN-DERIVED PEPTIDES AND USE THEREOF” (Shenzhen Turier Biotech Co., Ltd., priority 2020, published 2024)
*1 amine or outer side, *2 acyl side, *3 side chain or, on linkers, in order; H or OH if unused. Primed or numbered codes have the meaning given here. Where no end group is shown, it is not given here. [ ]: non-standard residue; d: D form. The star is where a group is joined. C20 diacid = O=C(O)CCCCCCCCCCCCCCCCCCC(=O)*; γGlu = O=C(O)[C@H](CCC(=O)[*:2])N[*:1]; Iva = CC[C@](C)(N)C(=O)O; PEG2′ = not defined here

Key:
MMP9 = test: ELISA of MMP9 in serum of mice of the bleomycin model; format: in vivo, C57BL/6J mice; details: BLM mice, 150 μg/kg daily intraperitoneal, 14 days, FIG. 6-A
Description: (§1) Molding method: 78 male C57BL/6J mice, 16-18 g in weight and 6-8 weeks old, provided by Laboratory Animal Center, Sun Yat-sen University, randomly divided into 13 groups: 1) normal control group (Normal), n=6; 2) sham-operated saline control group (Saline), n=6; 3) bleomycin model group (BLM), n=6; and 4) model treatment group: administration of 150 μg/kg series compounds to mice, 10 groups in total, n=6/group. On the 7th day after the operation of bleomycin induced pulmonary fibrosis in mice, mice in the model treatment group are treated with drugs (administration frequency: daily administration/150 μg/kg, intraperitoneal injection). Samples are taken 14 days after administration, and pathological observations are recorded.
(§2) The bleomycin (purchased from TCI Shanghai)) induced pulmonary fibrosis model manifests the following pathological features: bronchiectasis, hydropic degeneration of bronchial epithelial cells, obvious edema and widening of alveolar interstitium, and deposition of a large number of fibroblasts and collagen tissue. The alveolar structure almost completely disappears, filled with fibrous connective tissue, and accompanied by inflammatory cell infiltration. After 14 days of administration, the mice in the model treatment group are treated and sampled. Blood is taken from the retrobulbar vein for detection of serological indicators, and […] is taken for pathological analysis.
(§3) The occurrence and development of fibrotic diseases are related to TGF-β and MMP-9 induced EMT process. Matrix metalloproteinases (MMPs) are matrix degrading proteases that degrade all components of extracellular matrix. They participate in the pathophysiological process of pulmonary fibrosis, play an important role in the abnormal remodeling of extracellular matrix and destruction of basement membrane, and promote the recruitment of inflammatory cells and fibroblasts. The increased expression of MMP-9 in pulmonary fibrosis animal models and patients, higher than the normal MMP-9 level, may destroy normal tissue structure and increase the migration of inflammatory cells to the disease site. In order to further explore the inhibitory mechanism of polypeptide drugs on bleomycin induced pulmonary fibrosis, we detect the expression of TGFβ, MMP9 cell factors in serum of mice in each group by ELISA. […] We speculate that its mechanism should be related to TGF-β.

[1] = tested on: CCl4 induced hepatic fibrosis; test: Carbon tetrachloride (CCl4) induced hepatic fibrosis model in mice; format: in vivo, C57BL/6J mice; details: 100.0 μg/kg intraperitoneal, 3 weeks of administration; for aggregation of inflammatory cells in the liver (HE staining) / hepatic fibrosis of mice: FIG. 2; for expression of Collagen I in the liver (immunohistochemistry): FIG. 3; for collagen deposition in the liver (Sirius red staining): FIG. 4
Description: Molding method: 72 male C57BL/6J mice, male, 18-22 g in weight and 8 weeks old, provided by Laboratory Animal Center, Sun Yat-sen University, randomly divided into 12 groups: 1) control group (Oil)+saline, intraperitoneal injection, n=6; 2) model control group (CCl4)+saline, intraperitoneal injection, n=6; administration of CCl4 to mice once every three days for 6 weeks; 3) model administration group (CCl4)+100.0 μg/kg series of compounds (group 10), intraperitoneal injection, n=6/group. The mice in the control group are injected with corn oil at the same volume and frequency according to the administration volume of 20% CCl4 at the weight of 5.0 μL/g. Administration frequency: administration of CCl4 to mice once every three days for 6 weeks. After 3 weeks of administration of CCl4 to mice in the model administration group, peptide compounds 1, 5, 7, 11, 12, 13, 17, 18, 21 and 22 are administered for 3 weeks from the 4th week. CCl4 and Oil are purchased from Shanghai Aladdin Biochemical Technology Co., Ltd.
In the CCl4 induced hepatic fibrosis model, the manifestations are: inflammatory cell infiltration around the central vein area, hydropic degeneration of hepatic cells, and increased accumulation of collagen fibers in the portal area and the hepatic interlobular septum. After three weeks of administration, the mice are treated and sampled. Blood is taken from the retrobulbar vein for detection of serological indicators, and liver tissue is taken for pathological analysis.
(§4) Hematoxylin-eosin (H&E) staining: paraffin embedded tissue sections are taken and baked at 60° C. for 1 h. Dewaxing and hydration: xylene for 20 minutes→xylene for 20 minutes→absolute alcohol for 15 minutes→absolute alcohol for 15 minutes→95% alcohol for 10 minutes→90% alcohol for 5 minutes→80% alcohol for 5 minutes. Staining: hematoxylin for 7 minutes→rinsing with tap water→differentiation with 1% hydrochloric acid alcohol for 1 s→rinsing with tap water→eosin staining for 15 s-20 s→rinsing with tap water. Dehydration and transparency: 75% alcohol for 1 s→85% alcohol for 1 s→95% alcohol for 1 s→100% alcohol for 1 s→xylene for Is→xylene for 1 s. The sections are aired for 30 minutes and sealed with gum.
Sirius red staining: drying and dewaxing; standing for 5.0 minutes in double distilled water; Sirius red staining for 60-80 minutes in a dark room; washing for 5 s with 0.5% glacial acetic acid; dehydration and transparency, sealing and taking photos.
Immunohistochemistry: drying sections, dewaxing, and then soaking in double distilled water for 5 minutes. Antigen retrieval: putting the shelf where pathological sections are placed into a beaker containing citric acid buffer (PH=6.0), and keeping it under high temperature and pressure for 15 minutes; taking out the beaker and letting it stand at room temperature until the temperature drops to the room temperature, then taking out the sections and putting them into 3.0% hydrogen peroxide for 10 minutes to block the endogenous peroxidase activity, and then washing them with PBS for three times, 5 minutes each time; sealing the tissues with 1.0% BSA for 1 h; removing 1.0% BSA, adding Collagen I antibody on the tissue according to the proportion recommended in the Description, and staying overnight at 4° C.; taking out the pathological sections next day, adding the second antibody with horseradish peroxidase after the room temperature is restored, incubating it at 37° C. for 60 minutes, and then use DAB (diaminobenzidine) ([…], USA) to develop color; and re-staining with hematoxylin staining solution, washing with tap water for 5 minutes, differentiating with 1% hydrochloric acid alcohol, then washing with tap water for 5 minutes again, dehydrating, airing, sealing, and taking photos (H&E staining solution and Sirius red staining solution are purchased from Sangon Biotech (Shanghai) Co., Ltd., and Collagen I antibody is purchased from CST Corporation).

TGF-β = test: ELISA of TGFβ in serum of mice of the bleomycin model; format: in vivo, C57BL/6J mice; details: BLM mice, 150 μg/kg daily intraperitoneal, 14 days, FIG. 6-B
Description: as §1, §2, §3

LX2 cells = test: Activity evaluation in LX2 cell model (α-SMA protein expression); format: cell-based, human; details: 1.0 μM and 10.0 μM, 48 hours incubation, GAPDH internal reference, FIG. 1
Excerpt: In LX2 cell model (which can be directly used as the evaluation model of hepatic fibrosis cells in vitro, because LX2 cells are human liver activated stellate cells. The LX2 cells are purchased from China Center for Type Culture Collection of the Chinese Academy of Sciences, Shanghai, China), the anti-fibrosis activities of peptide compounds 1-25 are preliminarily screened, and the expression of the marker α-SMA protein of myofibroblast activation is detected. The peptide compounds 1-25 is subjected to cell incubation for 48 hours by using two concentrations (1.0 μM and 10.0 μM). The control group is given the same volume of Dulbecco's modified Eagle medium (DMEM) (purchased from Gibco in the United States), and GAPDH (purchased from TransGen Biotech) as the internal reference, α-actin (α-SMA) is a symbolic feature that distinguishes myoblast cells from myofibroblasts.

[2] = tested on: bleomycin induced pulmonary fibrosis; test: Bleomycin (BLM) induced pulmonary fibrosis model in mice; format: in vivo, C57BL/6J mice; details: 150 μg/kg daily intraperitoneal, 14 days, FIG. 5; for degree of pulmonary fibrosis (H&E staining and Masson staining): compared with bleomycin control group; for fibronectin in pulmonary parenchyma (α-SMA and Collagen1 immunohistochemistry): compared with bleomycin group
Description: as §1, §2
as §4, with “H&E” for “Hematoxylin-eosin (H&E)”, “1 s→xylene” for “Is→xylene”
Masson staining: drying and dewaxing; mordanting; adding celestine blue staining solution for 2-3 min, and washing with water; adding Mayer hematoxylin staining solution and washing with water; differentiating with acid alcohol differentiation liquid for several seconds, and washing with tap water; adding ponceau magenta staining solution and washing with distilled water; treating with phosphomolybdic acid solution; adding aniline blue staining solution for 5 min; treating with weak acid solution for 2 min; dehydration and transparency, airing and sealing with gum.
Immunohistochemistry: drying sections, dewaxing, and then soaking in double distilled water for 5 minutes. […]

Substance	concentration of MMP9 in serum of mice (MMP9)	aggregation of inflammatory cells in the liver (HE staining) [1]	hepatic fibrosis of mice [1]	expression of Collagen I in the liver (immunohistochemistry) [1]	collagen deposition in the liver (Sirius red staining) [1]	concentration of TGF-β in serum of mice (TGF-β)	inhibiting and improving the activity of α-SMA (expression of α-SMA protein) (LX2 cells)	degree of pulmonary fibrosis (H&E staining and Masson staining) [2]	fibronectin in pulmonary parenchyma (α-SMA and Collagen1 immunohistochemistry) [2]
(PEG2-PEG2-γGlu-CO(CH2)18CO2H)-Val-Val-Gly-Ser-Pro-Ser-Ala-Gln-Glu-Asp-Ala-Ser-Pro-Leu-NH2 ({C20 diacid-γGlu-PEG2′-PEG2′}-VVGSPSAQEDASPL-NH2) [Compound 12]	significantly reduce	significantly improved	significantly improved	significant therapeutic improvement	significant therapeutic improvement	significantly reduce	better effects on inhibiting and improving the activity of α-SMA	significantly reduced	significantly less than that in bleomycin group
Compound 17: cyclic peptide compound, head-to-tail amide (VVGSPSAQDEASPL; head-to-tail cyclisation; Compound 17)	significantly reduce	significantly improved	significantly improved	significant therapeutic improvement	significant therapeutic improvement	significantly reduce	better effects on inhibiting and improving the activity of α-SMA	significantly reduced	significantly less than that in bleomycin group
Compound 18: cyclic peptide compound, head-to-tail amide (VVGSPSAQDEASPA; head-to-tail cyclisation; Compound 18)	significantly reduce	significantly improved	significantly improved	significant therapeutic improvement	significant therapeutic improvement	significantly reduce	better effects on inhibiting and improving the activity of α-SMA	significantly reduced	significantly less than that in bleomycin group
Compound 21: cyclic peptide compound, head-to-tail amide (cyclo(V[Iva]GSPSAQDEASPA); SMILES CC[C@]1(C)NC(=O)[C@H](C(C)C)NC(=O)[C@H](C)NC(=O)[C@@H]2CCCN2C(=O)[C@H](CO)NC(=O)[C@H](C)NC(=O)[C@H](CCC(=O)O)NC(=O)[C@H](CC(=O)O)NC(=O)[C@H](CCC(N)=O)NC(=O)[C@H](C)NC(=O)[C@H](CO)NC(=O)[C@@H]2CCCN2C(=O)[C@H](CO)NC(=O)CNC1=O)	significantly reduce	significantly improved	significantly improved	significant therapeutic improvement	significant therapeutic improvement	significantly reduce	better effects on inhibiting and improving the activity of α-SMA	significantly reduced	significantly less than that in bleomycin group
Compound 22 (V[Iva]GSPSAQEEASPA; not fully specified (N-terminus, C-terminus))	significantly reduce	significantly improved	significantly improved	significant therapeutic improvement	significant therapeutic improvement	significantly reduce	better effects on inhibiting and improving the activity of α-SMA	significantly reduced	significantly less than that in bleomycin group
